Test results taken from ChEMBL document CHEMBL3046062, “Anti-HIV, antimycobacterial and antimicrobial studies of newly synthesized 1,2,4-triazole clubbed benzothiazoles” (Med Chem Res, 2013).
Values after ≈ are worked out from the molar mass of the structure shown.

Columns and labels:
[1] = system: Human immunodeficiency virus 2; experiment: Antiviral activity against Human immunodeficiency virus type 2 (ISOLATE ROD) infected MT4 cells assessed as inhibition of virus-induced cytopathogenicity after 5 days by MTT assay; assay type: functional, organism-based; conditions: Human immunodeficiency virus 2, ISOLATE ROD, MT4, 120 h
[2] = system: Human immunodeficiency virus 1; experiment: Antiviral activity against Human immunodeficiency virus 1 IIIB infected MT4 cells assessed as inhibition of virus-induced cytopathogenicity after 5 days by MTT assay; assay type: functional, organism-based; conditions: MT4, 120 h
[3] = Cytotoxicity against Homo sapiens (human) MT4 cells after 5 days by MTT assay; assay type: cell-based
[4] = Selectivity index, ratio of CC50 for human MT4 cells to IC50 for HIV1 3B; assay type: functional
[5] = Selectivity index, ratio of CC50 for human MT4 cells to IC50 for HIV2 ROD; assay type: functional
[6] = system: Staphylococcus aureus; experiment: Antibacterial activity against Staphylococcus aureus MTCC 96 after overnight incubation by broth microdilution method; assay type: functional
[7] = system: Aspergillus niger; experiment: Antifungal activity against Aspergillus niger MTCC 282 after overnight incubation by broth microdilution method; assay type: functional
[8] = system: Escherichia coli; experiment: Antibacterial activity against Escherichia coli MTCC 442 after overnight incubation by broth microdilution method; assay type: functional
[9] = system: Mycobacterium tuberculosis; experiment: Growth inhibition of Mycobacterium tuberculosis H37Rv at MIC after 28 days by Lowenstein-Jensen agar method; assay type: functional
[10] = system: Mycobacterium tuberculosis; experiment: Antitubercular activity against Mycobacterium tuberculosis H37Rv after 28 days by Lowenstein-Jensen agar method; assay type: functional; conditions: 672 h
[11] = system: Aspergillus clavatus; experiment: Antifungal activity against Aspergillus clavatus MTCC 323 after overnight incubation by broth microdilution method; assay type: functional
[12] = system: Streptococcus pyogenes; experiment: Antibacterial activity against Streptococcus pyogenes MTCC 443 after overnight incubation by broth microdilution method; assay type: functional
[13] = system: Pseudomonas aeruginosa; experiment: Antibacterial activity against Pseudomonas aeruginosa MTCC 2488 after overnight incubation by broth microdilution method; assay type: functional
[14] = system: Candida albicans; experiment: Antifungal activity against Candida albicans MTCC 227 after overnight incubation by broth microdilution method; assay type: functional

Structure (SMILES)	IC50 [1] [µg/mL]	IC50 [2] [µg/mL]	CC50 at 120 h [3] [µg/mL]	Ratio CC50/IC50 [4]	Ratio CC50/IC50 [5]	MIC99 [6] [µg/mL]	MIC99 [7] [µg/mL]	MIC99 [8] [µg/mL]	growth inhibition (GI) [9] [%]	MIC [10] [µg/mL]	MIC99 [11] [µg/mL]	MIC99 [12] [µg/mL]	MIC99 [13] [µg/mL]	MIC99 [14] [µg/mL]
O=[N+]([O-])c1ccc(-c2nnc(-c3cccnc3)n2Nc2nc3c(Cl)cccc3s2)cc1	> 15.5	> 15.5	15.6 (≈ 34.6 µM)	<1	<1									
COc1ccc2nc(Nn3c(-c4ccc([N+](=O)[O-])cc4)nnc3-c3cccnc3)sc2c1	> 12.9	> 12.9	12.9 (≈ 29 µM)	<1	<1									
O=[N+]([O-])c1ccc(-c2nnc(-c3cccnc3)n2Nc2nc3ccc(Cl)cc3s2)cc1	> 53.7	> 53.7	53.7 (≈ 119 µM)	<1	<1									
Clc1ccc(-c2nnc(-c3cccnc3)n2Nc2nc3ccc(Cl)cc3s2)cc1	> 54.3	> 54.3	54.3 (≈ 124 µM)	<1	<1	250 (≈ 569 µM)	500 (≈ 1140 µM)	1000 (≈ 2280 µM)	96	250 (≈ 569 µM)	1000 (≈ 2280 µM)	500 (≈ 1140 µM)	500 (≈ 1140 µM)	100 (≈ 228 µM)
COC1=CC(=O)C[C@@H](C)[C@]12Oc1c(Cl)c(OC)cc(OC)c1C2=O [GRISEOFULVIN]							100 (≈ 283 µM)				100 (≈ 283 µM)			500 (≈ 1420 µM)
Cc1cccc2sc(Nn3c(-c4ccc(Cl)cc4)nnc3-c3cccnc3)nc12	> 36.4	> 36.4	36.5 (≈ 87 µM)	<1	<1	100 (≈ 239 µM)	500 (≈ 1190 µM)	500 (≈ 1190 µM)	95	50 (≈ 119 µM)	500 (≈ 1190 µM)	1000 (≈ 2390 µM)	250 (≈ 597 µM)	200 (≈ 477 µM)
O=[N+]([O-])c1ccc2nc(Nn3c(-c4ccc(Cl)cc4)nnc3-c3cccnc3)sc2c1	> 62.1	> 62.1	62.1 (≈ 138 µM)	<1	<1	125 (≈ 278 µM)	500 (≈ 1110 µM)	250 (≈ 556 µM)	98	500 (≈ 1110 µM)	> 1000	100 (≈ 222 µM)	125 (≈ 278 µM)	500 (≈ 1110 µM)
O=[N+]([O-])c1ccc(-c2nnc(-c3cccnc3)n2Nc2nc3ccc(F)cc3s2)cc1	> 108	> 108	≥ 108	1	1									
O=[N+]([O-])c1cccc2sc(Nn3c(-c4ccc(Cl)cc4)nnc3-c3cccnc3)nc12	> 21.3	> 21.3	21.3 (≈ 47.4 µM)	<1	<1	200 (≈ 445 µM)	500 (≈ 1110 µM)	100 (≈ 222 µM)	97	500 (≈ 1110 µM)	500 (≈ 1110 µM)	250 (≈ 556 µM)	125 (≈ 278 µM)	100 (≈ 222 µM)
Cc1cccc2sc(Nn3c(-c4ccc([N+](=O)[O-])cc4)nnc3-c3cccnc3)nc12	> 13.5	> 13.5	13.5 (≈ 31.4 µM)	<1	<1									
NNc1nc2ccc(Br)cc2s1	> 8.01	> 8.01	8.01 (≈ 32.8 µM)	<1	<1									
Clc1ccc(-c2nnc(-c3cccnc3)n2Nc2nc3cc(Cl)c(Cl)cc3s2)cc1	> 52.1	> 52.1	52.1 (≈ 110 µM)	<1	<1	500 (≈ 1060 µM)	250 (≈ 528 µM)	500 (≈ 1060 µM)	98	250 (≈ 528 µM)	1000 (≈ 2110 µM)	500 (≈ 1060 µM)	250 (≈ 528 µM)	250 (≈ 528 µM)
O=[N+]([O-])c1ccc(-c2nnc(-c3cccnc3)o2)cc1	> 73.5	> 73.5	73.5 (≈ 274 µM)	<1	<1									
Fc1ccc2nc(Nn3c(-c4ccc(Cl)cc4)nnc3-c3cccnc3)sc2c1	> 92.9	> 92.9	92.9 (≈ 220 µM)	<1	<1	250 (≈ 591 µM)	500 (≈ 1180 µM)	500 (≈ 1180 µM)	98	62.5 (≈ 148 µM)	500 (≈ 1180 µM)	500 (≈ 1180 µM)	62.5 (≈ 148 µM)	200 (≈ 473 µM)
NNc1nc2cc(Cl)c(Cl)cc2s1	> 80	> 80	80 (≈ 342 µM)	<1	<1									
Cc1ccc2nc(Nn3c(-c4ccc(Cl)cc4)nnc3-c3cccnc3)sc2c1	> 75.5	> 75.5	75.5 (≈ 180 µM)	<1	<1	500 (≈ 1190 µM)	1000 (≈ 2390 µM)	500 (≈ 1190 µM)	95	50 (≈ 119 µM)	1000 (≈ 2390 µM)	500 (≈ 1190 µM)	500 (≈ 1190 µM)	1000 (≈ 2390 µM)
Clc1ccc(-c2nnc(-c3cccnc3)n2Nc2nc3ccc(Br)cc3s2)cc1	> 29.6	> 29.6	29.6 (≈ 61.2 µM)	<1	<1	500 (≈ 1030 µM)	500 (≈ 1030 µM)	500 (≈ 1030 µM)	96	500 (≈ 1030 µM)	1000 (≈ 2070 µM)	1000 (≈ 2070 µM)	500 (≈ 1030 µM)	100 (≈ 207 µM)
NNc1nc2ccc(F)cc2s1	> 13.8	> 13.8	13.8 (≈ 75.2 µM)	<1	<1									
